Here are results for 4 molecules from US8530235B2, “Medium that supports culture of an oocyte and modulation of granulosa cell apoptosis” (Adelaide Research & Innovation Pty Ltd., priority 2005, dated 2013).

Assay [1] relates to cumulus expansion of oocytectomised (OOX) complexes. Put plainly: FSH-induced cumulus expansion score of OOX complexes. It is filed as cell-based, mice. How it is done:
Members of the TGF-β superfamily are prime candidates for the mouse cumulus expansion-enabling factor (CEEF). This study was conducted to examine TGF-β superfamily processes regulating cumulus expansion. COCs were collected from eGG-primed mice and the oocyte microsurgically removed to generate oocytectomised (OOX) complexes. […] The type-I receptors for GDF9 and […] are ALK5 and ALK4, respectively. We tested the ability of an ALK4/5/7 kinase inhibitor to neutralize cumulus expansion.

The subject of assay [2] is cumulus cells. The experiment in a line: Cumulus cell apoptosis in oocytectomized complexes (OOX) and COC, TUNEL with confocal microscopy. It is filed as cell-based, Bovine. How it is done: Bovine ovaries were collected from local abattoir and transported to the laboratory in warm saline (30-35° C.). Cumulus-oocyte complexes (COC) were aspirated from antral follicles (2- to 8-mm diameter) using an 18-gauge needle and a 10-ml syringe containing ˜2 ml aspiration media (Hepes-buffered Tissue Cultured Medium-199: TCM-199, ICN Biochemicals, Irvine, Calif., USA) supplemented with 50 μg/ml kanamycin (Sigma-Aldrish, St. louis, Mo.), 4 mg/ml fatty acid-free bovine serum albumin (FAF-BSA) (ICPbio ltd, Auckland, NZ). Intact COC with compact cumulus vestment greater than five cell layers and evenly pigmented cytoplasm were selected under a dissecting microscope and washed twice in Hepes-buffered TCM-199 and once in corresponding culturing media.
The cytoplasm of each oocyte was microsurgically removed from the COC (oocytectomy) using a micromanipulator as described in Buccione et al (Buccione et al. (1990) Dev Biol 138, 16-25.). The resulting oocytectomized complex (OOX) consists of a hollow zona pellucida surrounded by several layers of intact CC.
Denuded oocytes (DO) were generated by removing CC from COC by vortexing for approximately 4 minutes in 2 ml H-TCM-199/BSA. Any remaining CC were removed by repeated passage of the oocytes through a fine-bore fire-polished glass pipette in H-TCM-199/BSA.
CC apoptoic DNA was detected using TUNEl (Roche Diagnostic, Penzberg, Germany) according to the manufacturer's instructions. Briefly, following culture COC and OOX complexes were washed twice in PBS (pH 7.4) containing 1% BSA, fixed in 4% paraformaldehyde in PBS (pH 7.4) overnight at 4° C. and washed twice with PBS/BSA before placing on Cell-Tak-coated coverslips (Beckton Dickinson Biosciences, Franklin lakes, N.J.). Complexes were then permeabilized in 0.11/u Triton X-100 in 0.1% sodium citrate for 1 hour at room temperature and washed 3 times in PBS/BSA. The complexes were then incubated in fluorescein-conjugated dUTP and terminal deoxynucleotide transferase (TUNEl reagents, Roche) for 1 hour at 37° C. in the dark. Positive controls were incubated in DNAse 1 (0.005 U/µl), which cleaves all DNA, for 20 minutes at room temperature and washed twice in PBS/BSA before TUNEl. Negative controls were incubated in fluorescein-dUTP in the absence of TdT. After TUNEl, complexes were washed twice in PBS/BSA and counterstained with propidium iodide 0.5 μg/ml (PI) plus RNase A (0.1 mg/ml) for 1 hour at room temperature in the dark to label all nuclei. Complexes were then washed twice in PBS/BSA and mounted with slight coverslip compression in VectaShield anti-bleaching solution (Vector labs, Burlingame, Calif.), and stored in the dark at 4° C. for confocal analysis.
Apoptosis in COC and OOX was visualised and quantified using confocal microscopy. Dual fluorescence emission from CC was detected using a Nikon C1 Confocal Scanning Head and a Nikon TE2000E microscope (Nikon, Tokyo, Japan). Simultaneous emission capture of the apoptotic signal (fluorescein, lacer excitation 488 nm, emission 510-530 nm) and the nuclear signal (propidium iodide, excitation lacer 532, emission 590-640 nm) was performed.
In order to generate an accurate representation of the overall apoptotic incidence for all complexes, the depth of each complex was measured through a Z series to divide the construct into three percentiles (optical Z plane sections) at 25%, 50% and 75%. These optical section images were acquired and saved as independent colour channels (green, apoptotic cumulus fluorescence and red, nuclear cumulus fluorescence). The captured images were then processed in Scanalytics IPlab software Version 3.6. (Scanalytics, Fairfax, Va.). Quantification of CC number (for each colour channel) was independently measured using a macro script utilizing an auto segmentation filter for each optical section percentile (3 optical “z”-plane sections for each complex).

For assay [3], the system named is cumulus-oocyte complexes. Put plainly: Study IV: oocyte developmental competence after IVM, IVF and embryo culture. Format: cell-based, Bovine. Here is the method:
Unless otherwise specified, all chemicals and reagents were purchased from Sigma (St Louis, Mo.). Bovine ovaries were collected from local abattoirs and transported to the laboratory in warm saline (30-35° C.). COCs were aspirated from antral follicles (3 to 5 mm diameter) using an 18-gauge needle and a 10-ml syringe containing ˜2 ml aspiration medium (Hepes-buffered. Tissue Cultured Medium-199; TCM-199. ICN Biochemicals, Irvine, Calif., USA) supplemented with 50 μg/ml kanamycin, 0.5 mM sodium pyruvate, 50 μg/ml heparin and 4 mg/ml fatty acid-free bovine serum albumin (FAF-BSA; ICPbio Ltd, Aukland, NZ). Intact COCs with compact cumulus vestments>˜5 cell layers and evenly pigmented cytoplasm were selected under a dissecting microscope and washed twice in Hepes-buffered TCM-199 and once in Hepes-buffered TCM-199 supplemented with 10% fetal calf serim (FCS) (Invitrogen, Carlsbad, Calif.). The basic medium for oocyte maturation was Bovine VitroMat (Cook Australia, Eight Mile Plains, Qld, Australia), a medium based on the ionic composition of bovine follicular fluid. […] Complexes were cultured in pre-equilibrated 300 ? l drops overlaid with mineral oil and incubated at 39° C. with 5% CO2 in humidified air for 24 hour. […]
Recombinant mouse GDF9 and recombinant ovine BMP15 were produced and partially purified in-house as previously described using transfected 293 human embryonic kidney cell lines (293H) originally donated by O. Ritvos (University of Helsinki). Control conditioned medium (hereafter designated ‘293H’) was produced from untransfected 293H cells and subjected to the same chromatography procedures as GDF9 and BMP15 conditioned media.
Consequently, SB-431542 potently antagonizes the ALK 4/5 ligands; TGF-β1, the activins and GDF9, without affecting BMP signalling (Inman et al., 2002; Gilchrist et al., 2006). […] Follistatin-288 was generously donated by S. Shimasaki (University of California San Diego, USA) and we have previously shown that this binding protein antagonizes the bioactivities of native OSFs and recombinant BMP15 in CCs.
In vitro production of embryos was undertaken using defined, serum-free media (Bovine Vitro series of media, Cook Australia). Frozen semen from a single bull of proven fertility was used in all experiments. Briefly, thawed semen was layered over a discontinuous (45%: 90%) Percoll gradient (Amersham Bioscience) and centrifuged (RT) for 20-25 mins at 700 g. The supernatant was removed and the sperm pellet was washed with 500 μl Bovine VitroWash (Cook Australia) and centrifuged for a further 5 minutes at 200 g. Spermatozoa were resuspended with IVF medium (Bovine VitroFert, Cook Australia), then added to the fertilization media drops (Bovine VitroFert, supplemented with 0.01 mM heparin, 0.2 mM penicillamine and 0.1 mM hypotaurine) at a final concentration of 1×106 spermatozoa/ml. COCs were inseminated at a density of 10 μl of IVF medium per COC for 24 h, at 39° C. in 6% CO2 in humidified air.
CCs were removed by gentle pipetting 23-24 h post insemination and five presumptive zygotes were transferred into 20 μl drops of pre-equilibrated Cook Bovine VitroCleave medium (Cook Australia) and cultured under mineral oil at 38.5° C. in 7% O2, 6% CO2, balance N2, for five days (day 1 to day 5).
On Day 5, embryos were transferred in groups of 5-6 to 20 μl drops of pre-equilibrated Bovine VitroBlast (Cook Australia) at 38.5° C. overlaid with mineral oil and cultured to Day 8. Embryos were assessed for quality at Day 8 according to the definitions presented in the Manual of the International Embryo Transfer Society (Stringfellow, 1998) and were performed independently and blinded by an experienced bovine embryologist.
Cell counts were performed using a modified version of the technique described by (Fouladi-Nashta et al., 2005). […]

Assay [4] deals with Smad 3-responsive CAGA-luciferase reporter. The experiment in a line: Smad 3-responsive CAGA-luciferase reporter in mural granulosa cells from large antral follicles. It is filed as cell-based, marmoset monkey, Callithrix jacchus. The conditions noted are these: 48 h; 0.5 ng/ml TGFβ1, 88-265 ng/ml GDF9, 50 ng/ml BMP7 or 60 mouse oocytes. How it is done:
(§1) FIGS. 18A and 18B show the activation of the TGF-β signalling pathway by GDF9 and oocytes. MGC from large follicles were transiently transfected with either a Smad 3-responsive CAGA-luciferase reporter construct (A) or a Smad 1-responsive BRE-luciferase reporter construct (B). Cells were subsequently left untreated, treated with 0.5 ng/ml TGFβ1, 88-265 ng/ml GDF9, 50 ng/ml BMP7 or co-cultured with 60 mouse oocytes. Cells were cultured for 48 h after which time luciferase activity was measured from cell extracts. Bars represent means+/− SEM from 3 replicate experiments expressed as a fold change relative to control.
(§2) Luciferase reporter constructs responsive to specific phosphorylated Smads were used to detect the activation of mural GC Smad proteins by recombinant GDF9 Mural GCs were collected and processed as described above, except cells were given a final wash in DMEM(MP Biomedicals, Seven Hills, Australia)+2% FCS (Trace Biosciences, Castle Hill, Australia). Following the final wash, cells were transferred to individual wells of a 96-well plate (Falcon) and cultured at 1.6×10^5 cells/ml. After 4 hours of culture, cells were transiently transfected with 50 ng of luciferase reporter construct DNA using Fugene 6 (Roche Diagnostics, Castle Hill, Australia). 18 hours after transfection, medium was aspirated from cells and replaced with DMEM supplemented with 0.1% FCS. Various ligands were added to cells at this point (see below) and the culture period extended for a further 48 hours. Experiments were terminated by removing media from wells and freezing plates at −20° C. […]
(§3) Seven adult female marmosets were primed with […] for 6 days, whole ovaries were removed on day 7, follicles manually excised, and GC were then collected from 3 size classes: periantral (PA; 0.42-0.66 mm), small antral (SA; 0.66-1.5 mm) and large antral (LA; >1.5 mm). […] In order to determine the effects of GDF9 on marmoset GC proliferation, we employed a GC bioassay whereby after 24 h ^3H-thymidine incorporation is assessed as an indicator of DNA synthesis and cellular proliferation. […]
For orientation: In a reporter assay the amount or activity of a reporter protein is the signal.

The subject of assay [5] is Smad 1-responsive BRE-luciferase reporter. Put plainly: Smad 1-responsive BRE-luciferase reporter in mural granulosa cells from large antral follicles. It is filed as cell-based, marmoset monkey, Callithrix jacchus. The conditions noted are these: 48 h; 0.5 ng/ml TGFβ1, 88-265 ng/ml GDF9, 50 ng/ml BMP7 or 60 mouse oocytes. Here is the method: as §1, §2, §3
The test system of assay [6] is granulosa cell. Put plainly: GDF-9 and oocyte-induced granulosa cell DNA synthesis (Example 21). Format: cell-based. The text has this:
FIGS. 14A and 14B show the effect of an AlK4/5/7 inhibitor on either GDF-9, TGF-β1, or oocyte induced DNA synthesis (Panel A), and the effect of various concentrations of the inhibitor on GDF-9 and oocyte induced DNA synthesis (Panel B).

Assay [7] relates to Smad2/3. The experiment in a line: CAGA-luciferase activity, activation of Smad2/3 (Example 21). It is filed as cell-based. The text has this:
FIGS. 15A and 15B show the effect of various concentrations of the AlK4/5/7 inhibitor on TGF-β1 stimulated CAGA luciferase activity.

In the case of follistatin [reference compound], the “cumulus expansion score with follistatin” value in assay [1] (OOX complexes co-cultured with oocytes, no significant effect (p>0.05)) is listed as 2.7±0.2; in assay [1] (response of OOX complexes to activin) it was 0. In addition, the “apoptosis of BMP-15-treated OOXs with antagonist” value in assay [2] (OOX + 10% v/v BMP-15, follistatin 0-100 μg/ml) was “dose-dependent increase in apoptosis”. Moreover, the “antagonism of the anti-apoptotic effects of oocytes on cumulus cells” value in assay [2] (OOX + 25 DO, 50 μg/ml follistatin or 20 μg/ml BMP-6 NAb alone) is about 50%. For the same molecule, the “blastocyst development of control COCs treated with antagonist” value in assay [3] (4 μM SB-431542 or 10 μg/ml follistatin-288, compared to untreated COCs) is listed as “significantly (P<0.05) decreased”. In addition, the “cleavage rate of oocytes” value in assay [3] (10 μg/ml follistatin-288 during IVM, regardless of BMP15 treatment, control 76.2±1.3, p=0.007, in %) was 71.8±1.3. The “increase of blastocyst yields by GDF9 or BMP15 on addition of the respective antagonist” value in assay [3] (SB-431542 against GDF9, follistatin against BMP15) was “ablated”.
For the molecule “TGF-β1: Transforming growth factor beta 1 [reference compound]”, the “CAGA-luciferase activity above control levels” value in assay [4] amounted to 19 fold. For the same molecule, the “BRE-luciferase activity compared to control levels” value in assay [5] is listed as “not activated”.
Turning to `NC(=O)c1ccc(-c2nc(-c3ccccn3)c(-c3ccc4c(c3)OCO4)[nH]2)cc1` [ALK4/5/7 kinase inhibitor], in assay [6], the “GDF-9 and oocyte-induced granulosa cell DNA synthesis with inhibitor” value is given as “completely abrogated”. Moreover, in assay [1] (OOX complexes), the “GDF-9 and oocyte-induced cumulus expansion with inhibitor” value is on record as “completely neutralised”. The “TGF-β1, GDF9 and oocyte-stimulated activation of Smad2/3 molecules (CAGA-luciferase activity) with inhibitor” value in assay [7] is given as “completely abrogated”.

B1: BMP-7: Recombinant human BMP-7 obtained from R&D systems (protein, UniProt P18075 293-431, looked up)
Bone morphogenetic protein 7: STGSKQRSQNRSKTPKNQEALRMANVAENSSSDQRQACKKHELYVSFRDLGWQDWIIAPEGYAAYYCEGECAFPLNSYMNATNHAIVQTLVHFINPETVPKPCCAPTQLNAISVLYFDDSSNVILKKYRNMVVRACGCH
Regarding B1, in assay [4], the “CAGA-luciferase activity above control levels” value was “not stimulated”. Further, in assay [5], the “BRE-luciferase activity compared to control levels” value stood at 31 fold. Moreover, the “effect on cumulus cell apoptosis” value in assay [2] (OOX treated with 100 ng/ml BMP-7 and/or 10% BMP-15) is listed as “significantly reduced”.
